Test results as given in patent publication US10351548B2, “2-oxo-1,2-dihydropyridine-3-carboxamide compounds and their use as inhibitors of PDK1” (INTERNATIONAL SOCIETY FOR DRUG DEVELOPMENT S.R.L., priority 2015, dated 2019).
Read-outs that look alike come from different tables or passages of the source.

Columns and labels:
[1] = tested on: AKT phosphorylation at Thr308 in U87MG cells; test: PDK1 activity in U87MG cells, (T308)AKT phosphorylation ELISA; format: cell-based, human; conditions: for inhibition at 10 µM: Homo sapiens, U-87 MG, U87MG cells, read-out: peak of inhibition (percentage of PDK1 inhibition); for time of peak of inhibition of (T308)AKT phosphorylation / inhibition of AKT phosphorylation at Thr308: U87MG, 10 μM; for inhibition of AKT phosphorylation at Thr308: 0-120 min
Experimental: (§1) U87MG cells were cultured in 96-well microplates (5.000 cells/well), and treated for different times with 10 μM SA16, SA23 or IB35. At the end of the treatment period, the GSCs were centrifuged at 500×g for 3 minutes; cells were washed twice using fresh saline, and rapidly fixed with 4% (for adherent U87MG cells) or 8% (for suspension GSCs) formaldehyde to preserve activation of specific protein modification. The activity of PDK1 was assessed measuring the levels of phosphorylated AKT on Thr308, using a specific primary antibodies. The subsequent incubation with a secondary HRP-conjugated antibody and the developing solution allowed the colorimetric quantification of the levels of phosphorylated protein. The relative number of cells in each well was then determined using the Crystal-Violet assay. The results were calculated by subtracting the mean background value from the values obtained under each test condition: values were normalised to the number of cells in each well and were expressed as the percentages of the control (untreated cells) values.
280(4): p. 1107-1115). […] At the end of the treatment periods, the levels of (T308)AKT phosphorylation was evaluated using an ELISA kit, as described above. The data reported in FIG. 5 were expressed as the percentage of phosphorylated (T308)AKT relative to those of untreated cells (control), which were set at 100%, and were the mean values±SEM of three independent experiments performed in triplicate.

[2] = tested on: AKT phosphorylation at Thr308 in GSCs; test: PDK1 activity in GSCs, (T308)AKT phosphorylation ELISA; format: cell-based, human; conditions: for time of peak of inhibition of AKT phosphorylation at Thr308 / inhibition of AKT phosphorylation at Thr308: 10 μM; for inhibition of AKT phosphorylation at Thr308: 0-120 min; for inhibition at 10 µM: Homo sapiens, read-out: peak of inhibition (percentage of PDK1 inhibition)
Experimental: as §1
The effects of the new compounds on PDK1 activity were investigated by ELISA assays also in GSCs. U87MG-derived CSCs were treated for the indicated times (0-120 min) with NSC medium containing DMSO (control), or 10 μM IIB35, SA23 or SA16. At the end of the treatment periods, the levels of AKT phosphorylation on Thr308 were evaluated using an ELISA assay, as above described. The data were expressed as the percentage of phosphorylated AKT relative to those of untreated cells (control), which were set at 100%, and were the mean values±SEM of three independent experiments performed in triplicate. The data are represented in FIG. 12. The significance of differences was performed using one-way ANOVA with Bonferroni post-test (* p<0.05, ** p<0.01, *** p<0.001 vs. control).

PDK1 Direct kinase = PDK1 Direct kinase (Homo sapiens (Human), UniProt O15530); test: Kinase-specific FRET-based Z'-LYTE assay against PDK1 Direct kinase; format: biochemical
PDK1 Direct kinase, sequence (O15530 whole entry): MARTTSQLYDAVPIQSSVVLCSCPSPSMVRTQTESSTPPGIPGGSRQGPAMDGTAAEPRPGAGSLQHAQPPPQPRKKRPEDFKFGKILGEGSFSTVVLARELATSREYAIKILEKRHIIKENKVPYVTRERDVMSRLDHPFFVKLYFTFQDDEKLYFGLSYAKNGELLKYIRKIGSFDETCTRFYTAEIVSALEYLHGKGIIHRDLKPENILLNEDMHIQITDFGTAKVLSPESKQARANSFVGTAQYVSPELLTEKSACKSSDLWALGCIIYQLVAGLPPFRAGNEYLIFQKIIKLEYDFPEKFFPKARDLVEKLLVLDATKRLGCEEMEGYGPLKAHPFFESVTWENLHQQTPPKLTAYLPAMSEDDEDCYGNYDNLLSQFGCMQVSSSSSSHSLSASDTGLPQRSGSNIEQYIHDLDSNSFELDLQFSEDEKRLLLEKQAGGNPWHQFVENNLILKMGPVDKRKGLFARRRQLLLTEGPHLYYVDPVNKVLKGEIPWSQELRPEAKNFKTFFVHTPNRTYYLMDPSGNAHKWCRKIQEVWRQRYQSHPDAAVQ
Experimental: The compounds of Formula (I) and (II) were tested in the biological test named Kinase-specific Z′-LYTE® assay (Invitrogen Corporation, Life Technologies).

[3] = tested on: GSCs isolated from U87MG cells; test: GSC proliferation, MTS assay; format: cell-based, human; conditions: for IC50: Homo sapiens, U-87 MG, 168 h, seven days of treatment, MTS assay; for inhibition of GSC proliferation: starting from four days of treatment
Experimental: The U87MG cell line was obtained from the National Institute for Cancer Research of Genoa (Italy) and cultured in DMEM 10% FBS and 2 mM glutamine. To isolate GSCs, approximately 2.0×10^6 cells were suspended in 1 mL of a defined serum-free Neural Stem Cell (NSC) medium (Daniele, S., et al., Modulation of A1 and A2B adenosine receptor activity: a new strategy to sensitise glioblastoma stem cells to chemotherapy. Cell death & disease, 2014. 5(11): p. e1539). After 3-4 days of culture, the neurospheres were collected, suspended in NSC medium, dissociated into single cells, and plated for the assays. For the long-term treatment of cells, NSC or complete medium containing drugs was replaced every two to three days.
The human U87MG cells or GSCs were seeded at a density of 3×10^3 cells/well. After 24 h, the cells were treated from one to seven days with fresh growth medium containing different concentrations of SA16, SA23 or IB35. Following the treatment period, cell proliferation was determined using the MTS assay according to manufacturer's instruction. The absorbance of formazan at […] was measured in a colorimetric assay with an automated plate reader (Victor Wallac 2, Perkin Elmer). The results were calculated by subtracting the mean background from the values obtained from each evaluation and were expressed as the percentage of the control (untreated cells). Sigmoid dose-response curve was generated, from which the IC50 values were derived.
The inhibition of PDK1 has been reported as potentially effective therapeutic approach to reduce self-renewal and propagation of GSCs (Signore, M., et al., Combined PDK1 and CHK1 inhibition is required to kill glioblastoma stem-like cells in vitro and in vivo. Cell death & disease, 2014. 5(5): p. e1223). On this basis, the effects of SA16, SA23 and IB35 on GSCs, isolated from U87MG cells as previously reported, were evaluated (Daniele, S., et al., Modulation of A1 and A28 adenosine receptor activity: a new strategy to sensitise glioblastoma stem cells to chemotherapy. Cell death & disease, 2014. 5(11): p. e1539). U87MG-derived GSCs were incubated with the indicated concentrations of IB35, SA23 or SA16 for four days (FIG. 8) or seven days (FIG. 9). At the end of the treatment periods, cell proliferation was measured using the MTS assay. The data were expressed as a percentage with respect to that of untreated cells (control), which was set to 100%, and are the mean values±SEM of three independent experiments, each performed in duplicate. IC50 values after seven days of treatment were calculated from sigmoid dose-response curve (FIG. 9). The significance of the differences was determined with a one-way ANOVA with Bonferroni post-test (** p<0.01, *** p<0.001 vs. control).

[4] = read-out: IC50 (nM) PDK1 direct

SMILES	inhibition at 10 µM [1] [%]	time of peak of inhibition of (T308)AKT phosphorylation [1] [min]	inhibition of AKT phosphorylation at Thr308 [1]	time of peak of inhibition of AKT phosphorylation at Thr308 [2] [min]	inhibition of AKT phosphorylation at Thr308 [2]	inhibition at 10 µM [2] [%]	inhibition at 10 µM (PDK1 Direct kinase) [%]	IC50 (PDK1 Direct kinase; [4]) [nM]	IC50 (PDK1 Direct kinase; read-out: PDK1 IC50) [nM]	IC50 [3] [nM]	inhibition of GSC proliferation [3]
O=C(CNC(=O)c1cccn(Cc2ccc(F)c(F)c2)c1=O)Nc1ccc2c(c1)/C(=C/c1cnc[nH]1)C(=O)N2 [IB35, (Z)—N-(2-((3-((1H-imidazol-5-yl)methylene)-2-oxoindolin-5-yl)amino)-2-oxoethyl)-1-(3,4-difluorobenzyl)-2-oxo-1,2-dihydro pyridine-3-carboxamide]	54 ± 5.2	120	significantly inhibited	120	significantly inhibited	80.4 ± 3.7	> 50	112	112	3.36 ± 0.4	significant inhibition
O=C1Nc2ccc(NC(=O)[C@H](NC(=O)c3cccn(Cc4ccc(F)c(F)c4)c3=O)c3ccccc3)cc2/C1=C/c1ncc[nH]1 [SA23, (Z)—(R)—N-(2-((3-((1H-imidazol-2-yl)methylene)-2-oxoindolin-5-yl)amino)-2-oxo-1-phenylethyl)-1-(3,4-difluorobenzyl)-2-oxo-1,2-dihydropyridine-3-carboxamide]	48.1 ± 5	120	significantly inhibited	120	significantly inhibited	69 ± 4.5	> 50	1520	1520	0.3 ± 0.04	significant inhibition
